Patent publication US10709690B2, “Combination therapy with nitrated lipids and inhibitors of the renin-angiotensin-aldosterone system” (THE UNIVERSITY OF UTAH RESEARCH FOUNDATION, priority 2011, dated 2020)

Legend:
Assay type in all cases: in vivo
db/db mice [1] = experiment: Urinary albumin in db/db mice, 12-day treatment; settings: 12-day study, OA-NO2 10 mg/kg/d via osmotic mini-pump, losartan via diet; for changes of urinary albumin relative to the vehicle group: + increase, − decrease in albuminuria
Method: FIG. 1 is a bar graph comparing the amounts of urinary albumin in db/db mice before and after a 12 day (12-d) administration of vehicle, losartan, nitrooleic acid (OA-NO2), or losartan+OA-NO2. Lean mice (non-diabetic) with vehicle treatment were used as controls. losartan was administered via diet, while OA-NO2 and vehicle were each infused via osmotic mini-pump. Lean: n=5; vehicle: n=10; losartan: n=8; OA-NO2: n=9; losartan+OA-NO2: n=10. Data are mean±SE. Male 3-4-month-old db/db mice were from Jackson Laboratories (Bar Harbor, Me.). All animals were housed in an air-conditioned room with a 12-hour light/dark cycle. All procedures and protocols were in accordance with guidelines set by the Laboratory Animal Care Committee at the University of Utah. 9-Nitrooleic acid and 10-nitrooleic acid are two regioisomers of nitrooleic acid (OA-NO2), which are formed by nitration of oleic acid in approximately equal proportions ([…] et al. Chemistry Letters pp. 1109-1112, 1982). The two compounds were purchased from Cayman Chemicals (Ann Arbor, Mich.) (9-nitrooleic acid: Cat #10008042; 10-nitrooleic acid: Cat #10008043) and used as an 1:1 mixture of the isomers. db/db mice were implanted with a 3-week osmotic mini-pump which delivered a vehicle or OA-NO2 at 10 mg/kg/d. Animals were fed with losartan, which is an AT1 blocker. 24-h urine samples were collected before and after the treatment. […] The plus symbol (+) means an increase and the minus symbol (-) indicates a decrease in albuminuria.

db/db mice [2] = experiment: Urinary TBARS in db/db mice, 12-day treatment; settings: OA-NO2 10 mg/kg/d via osmotic mini-pump, losartan via diet; for effect on urinary TBARS (in words): 12 days; for changes of urinary TBARS relative to the vehicle group: after 12 days
Method: (§1) FIG. 2 is a bar graph comparing the amounts of urinary thiobarbituric acid reactive substances (TBARS) in db/db mice before and after 12-d infusion with vehicle, losartan, nitrooleic acid (OA-NO2), or losartan+OA-NO2. Lean mice (non-diabetic) with vehicle treatment were used as controls. Losartan was administered via diet, while vehicle and OA-NO2 were each infused via osmotic mini-pump. Lean: n=5; vehicle: n=10; losartan: n=8; OA-NO2: n=9; losartan+OA-NO2: n=10. Data are mean±SE. Male 3-4-month-old db/db mice were from Jackson Laboratories (Bar Harbor, Me.). All animals were housed in an air-conditioned room with a 12-hour light/dark cycle. All procedures and protocols were in accordance with guidelines set by the Laboratory Animal Care Committee at the University of Utah. 9-Nitrooleic acid and 10-nitrooleic acid are two regioisomers of nitrooleic acid (OA-NO2), which are formed by nitration of oleic acid in approximately equal proportions ([…] et al. Chemistry Letters pp. 1109-1112, 1982). The two compounds were purchased from Cayman Chemicals (Ann Arbor, Mich.) (9-nitrooleic acid: Cat #10008042; 10-nitrooleic acid: Cat #10008043) and used as an 1:1 mixture of the isomers. db/db mice were implanted with a 3-week osmotic mini-pump which delivered a vehicle or OA-NO2 at 10 mg/kg/d. Animals were fed with losartan, which is an AT1 blocker. 24-h urine samples were collected before and after the treatment.

db/db mice [3] = experiment: Renal TBARS in db/db mice, 12-day treatment; settings: 12 days, OA-NO2 10 mg/kg/d via osmotic mini-pump, losartan via diet
Text: as §1, with “Lean” for “FIG. 2 is a bar graph comparing the amounts of urinary thiobarbituric acid reactive substances (TBARS) in db/db mice before and after 12-d infusion with vehicle, losartan, nitrooleic acid (OA-NO2), or losartan+OA-NO2. Lean”, “Losartan was administered via diet, while vehicle and OA-NO2 were each infused via osmotic mini-pump.” left out

renal COX-2 protein = experiment: Renal COX-2 protein expression in db/db mice by immunoblotting; settings: 12 days; for changes of renal COX-2 protein expression relative to the vehicle group: OA-NO2 10 mg/kg/d via osmotic mini-pump, losartan via diet
Method: Lean mice (non-diabetic) with vehicle treatment were used as controls. Renal COX-2 protein was analyzed by using immunoblotting.
Male 3-4-month-old db/db mice were from Jackson Laboratories (Bar Harbor, Me.). All animals were housed in an air-conditioned room with a 12-hour light/dark cycle. All procedures and protocols were in accordance with guidelines set by the Laboratory Animal Care Committee at the University of Utah.
9-Nitrooleic acid and 10-nitrooleic acid are two regioisomers of nitrooleic acid (OA-NO2), which are formed by nitration of oleic acid in approximately equal proportions (Hayama et al. Chemistry Letters pp. 1109-1112, 1982). The two compounds were purchased from Cayman Chemicals (Ann Arbor, Mich.) (9-nitrooleic acid: Cat #10008042; 10-nitrooleic acid: Cat #10008043) and used as an 1:1 mixture of the isomers.
db/db mice were implanted with a 3-week osmotic mini-pump which delivered a vehicle or OA-NO2 at 10 mg/kg/d. Animals were fed with losartan, which is an AT1 blocker. 24-h urine samples were collected before and after the treatment.
Renal COX-2 expression in db/db mice treated as above was examined by immunoblotting.

[4] = test system: renal heme oxygenase-1 (HO-1) protein; experiment: Renal heme oxygenase-1 protein expression in db/db mice by immunoblotting; settings: 12 days; for changes of renal HO-1 protein expression relative to the vehicle group: OA-NO2 10 mg/kg/d via osmotic mini-pump, losartan via diet
Method: as §1, with “Lean” for “FIG. 2 is a bar graph comparing the amounts of urinary thiobarbituric acid reactive substances (TBARS) in db/db mice before and after 12-d infusion with vehicle, losartan, nitrooleic acid (OA-NO2), or losartan+OA-NO2. Lean”, “Renal HO-1 protein” for “Losartan”, “analyzed by using immunoblotting. […]” for “administered via diet, while vehicle and OA-NO2 were each infused via osmotic mini-pump. Lean: n=5; vehicle: n=10; losartan: n=8; OA-NO2: n=9; losartan+OA-NO2: n=10. Data are mean±SE.”, “treatment. Renal HO-1 expression was examined using immunoblotting.” for “treatment.”

| Compound | effect on urinary albumin excretion (in words) (db/db mice [1]) | changes of urinary albumin relative to the vehicle group (db/db mice [1]) | effect on urinary TBARS (in words) (db/db mice [2]) | changes of urinary TBARS relative to the vehicle group (db/db mice [2]) | effect on renal TBARS content (in words) (db/db mice [3]) | effect on renal COX-2 expression (in words) (renal COX-2 protein) | changes of renal COX-2 protein expression relative to the vehicle group (renal COX-2 protein) [%] | effect on renal HO-1 expression (in words) [4] | changes of renal HO-1 protein expression relative to the vehicle group [4] |
| --- | --- | --- | --- | --- | --- | --- | --- | --- | --- |
| CCCCc1nc(Cl)c(CO)n1Cc1ccc(-c2ccccc2-c2nn[nH]n2)cc1 [losartan] | Neither losartan or OA-NO2 alone exhibited a statistically significant effect | +7% | without an effect | +33.4% | trend of reduction but none of these changes reached statistical significance | modest effect | −5.3 | elevated | +97.6% |
| nitrooleic acid [OA-NO2] | Neither losartan or OA-NO2 alone exhibited a statistically significant effect | −13% | without an effect | +16.5% | trend of reduction but none of these changes reached statistical significance | modest effect | −14.8 | elevated | +48.8% |
